Test results taken from US12648923B2, “Dietary butyrate and its uses” (SOCIETE DES PRODUITS NESTLE S.A., priority 2019, dated 2026).

Biological target: T1, porcine pancreatic lipase (from pancreatin) (Sus scrofa, UniProt P00591)
T1 construct: pancreatin (Porcine, USP×8, P7585); purchased Sigma-Aldrich P7585; host or cells: porcine pancreas extract (pancreatin)
T1 sequence (P00591 1-450): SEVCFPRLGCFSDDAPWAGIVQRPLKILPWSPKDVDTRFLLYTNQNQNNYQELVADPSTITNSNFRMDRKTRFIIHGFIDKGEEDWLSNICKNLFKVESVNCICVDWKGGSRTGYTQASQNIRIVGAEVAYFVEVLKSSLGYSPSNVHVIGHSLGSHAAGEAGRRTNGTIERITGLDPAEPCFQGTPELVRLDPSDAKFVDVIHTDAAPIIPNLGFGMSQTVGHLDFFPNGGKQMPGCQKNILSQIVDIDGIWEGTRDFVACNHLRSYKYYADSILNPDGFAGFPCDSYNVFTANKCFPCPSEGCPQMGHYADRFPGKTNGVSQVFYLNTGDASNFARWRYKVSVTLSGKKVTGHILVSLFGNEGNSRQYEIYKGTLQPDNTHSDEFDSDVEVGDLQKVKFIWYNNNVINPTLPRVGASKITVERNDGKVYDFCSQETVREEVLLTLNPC
T1 sequence (P02703 23-112 partner): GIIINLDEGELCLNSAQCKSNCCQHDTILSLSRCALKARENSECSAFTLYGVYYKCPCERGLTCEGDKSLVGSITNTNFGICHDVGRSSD
Experiment: In vitro digestion in simulated intestinal fluid (SIF), pH-stat
Format: in vitro ADME
Conditions: SIF alone; emulsion with 200 mg fat; pH 6.8, 37° C.
Method: 10 wt % oil in water emulsions stabilised by 0.3 wt % polyoxyethylene sorbitan mono-oleate (Tween® 80) were prepared by mixing the Tween 80 into the oil phase at 40° C., then mixing with the water phase using a magnetic stirrer. An emulsion was then created using a Hielscher UP 400S ultrasonic probe homogeniser equipped with a 5 mm diameter rod-like probe by applying 100% amplitude at 100% cycle for 2 minutes whilst the sample was cooled using ice water.
The lipid emulsion (2 mL) containing 200 mg of fat was subjected to gastrointestinal in vitro lipolysis. […]
The intestinal digestion step was performed in the pH stat where the pH was kept constant at 6.8 by addition of NaOH (0.05 M). […] During the intestinal phase of digestion, the kinetics of digestion were followed using a pH-stat (TIM856, Radiometer) technique and expressed as titratable acid (rather than fatty acid) that was calculated by the equation: TA=VNaOH×0:05×1000 […]
Since the digestion of dietary lipids involves lipases of both gastric and intestinal origin, lipid digestibility was assessed using two digestion models i) simulated intestinal fluid (SIF) with porcine pancreatic lipase (PPL) and ii) sequential digestion in simulated gastric fluid (SGF) with rabbit gastric lipase (RGL) followed by simulated intestinal fluid (SIF) with porcine pancreatic lipase (PPL).

initial rate of lipolysis: 223 ± 59 µmol/min
Structure (SMILES): CCCC(=O)OCC(COC(=O)CCC)OC(=O)CCC [tributyrin]
